Assay results taken from patent US8946426B2, “Substituted bicyclic heterocyclic compounds as gamma secretase modulators” (Janssen Pharmaceuticals, Inc., priority 2009, dated 2015).

What was measured:
Format in all cases: cell-based
Aβ42 [1] = assay: Method 1: Aβ42 sandwich ELISA in supernatant of SKNBE2 cells carrying APP 695-wild type (Tables 7a, 7b); details: Table 7b; averaged IC50; non-linear regression of percentage of control vs log concentration, 4-parameter equation
Protocol: (§1) Screening was carried out using SKNBE2 cells carrying the APP 695-wild type, grown in Dulbecco's Modified Eagle's Medium/Nutrient mixture F-12 (DMEM/NUT-mix F-12) (HAM) provided by Gibco (cat no. 31330-38) containing 5% Serum/Fe supplemented with 1% non-essential amino acids. Cells were grown to near confluency.
The screening was performed using the assay as described in Citron et al (1997) Nature Medicine 3: 67. Briefly, cells were plated in a 96-well plate at about 10^5 cells/ml one day prior to addition of compounds. Compounds were added to the cells in Ultraculture (Lonza, BE12-725F) supplemented with 1% glutamine (Invitrogen, 25030-024) for 18 Hours. The media were assayed by two sandwich ELISAs, for Aβ42 and Aβtotal. Toxicity of the compounds was assayed by WST-1 cell proliferation reagent (Roche, 1 644 807) according to the manufacturer's protocol.
To quantify the amount of Aβ42 in the cell supernatant, commercially available Enzyme-Linked-Immunosorbent-Assay (ELISA) kits were used (Innotest® β-Amyloid(1-42), Innogenetics N.V., Ghent, Belgium). The Aβ42 ELISA was performed essentially according to the manufacturer's protocol. Briefly, the standards (dilutions of synthetic Aβ1-42) were prepared in polypropylene Eppendorf with final concentrations of 8000 down to 3.9 pg/ml (½ dilution step). Samples, standards and blanks (100 μl) were added to the anti-Aβ42-coated plate supplied with the kit (the capture antibody selectively recognizes the C-terminal end of the antigen). The plate was allowed to incubate 3 H at 25° C. in order to allow formation of the antibody-amyloid complex. Following this incubation and subsequent wash steps a selective anti-Aβ-antibody conjugate (biotinylated 3D6) was added and incubated for a minimum of 1 Hour in order to allow formation of the antibody-Amyloid-antibody-complex. After incubation and appropriate wash steps, a Streptavidine-Peroxidase-Conjugate was added, followed 30 minutes later by an addition of 3,3′,5,5′-tetramethylbenzidine (TMB)/peroxide mixture, resulting in the conversion of the substrate into a coloured product. This reaction was stopped by the addition of sulfuric acid (0.9 N) and the colour intensity was measured by means of photometry with an ELISA-reader with a 450 nm filter.
To obtain the values reported in Table 7a, the sigmoidal dose response curves were analysed by computerised curve-fitting, with percent of inhibition plotted against compound concentration. A 4-parameter equation (model 205) in XLfit was used to determine the IC50. The top and the bottom of the curve were fixed to 100 and 0, respectively, and the hill slope was fixed to 1. The IC50 represents the concentration of a compound that is required for inhibiting a biological effect by 50% (Here, it is the concentration where Aβ peptide level is reduced by 50%).
(§2) To obtain the values reported in Table 7b, the data were calculated as percentage of the maximum amount of amyloid Beta 42 measured in the absence of the test compound. The sigmoidal dose response curves were analyzed using non-linear regression analysis with percentage of the control plotted against the log concentration of the compound. A 4-parameter equation was used to determine the IC50. The values reported in Table 7b are averaged IC50 values.

Aβ42 [2] = assay: Method 2: Aβ42 Alphalisa in supernatant of SKNBE2 cells carrying APP 695-wild type (Table 7c); details: Method 2, Alphalisa, overnight incubation
Protocol: as §1, with “Invitrogen” for “Gibco”, “10371-029)” for “31330-38)”, “acids, 1-glutamine 2 mM, Hepes 15 mM, penicillin 50 U/ml (units/ml) en streptomycin 50 μg/ml.” for “acids.”
(§3) The screening was performed using a modification of the assay as described in Citron et al (1997) Nature Medicine 3: 67. Briefly, cells were plated in a 384-well plate at 10^4 cells/well in Ultraculture (Lonza, BE12-725F) supplemented with 1% glutamine (Invitrogen, 25030-024), 1% non-essential amino acid (NEAA), penicillin 50 U/ml en streptomycin 50 μg/ml in the presence of test compound at different test concentrations. The cell/compound mixture was incubated overnight at 37° C., 5% CO2. The next day the media were assayed by two sandwich immuno-assays, for Aβ42 and Aβtotal.
(§4) Aβtotal and Aβ42 concentrations were quantified in the cell supernatant using the Aphalisa technology (Perkin Elmer). Alphalisa is a sandwich assay using biotinylated antibody attached to streptavidin coated donorbeads and antibody conjugated to acceptor beads. In the presence of antigen, the beads come into close proximity. The excitation of the donor beads provokes the release of singlet oxygen molecules that trigger a cascade of energy transfer in the acceptor beads, resulting in light emission. To quantify the amount of Aβ42 in the cell supernatant, monoclonal antibody specific to the C-terminus of Aβ42 (JRF/cAβ42/26) was coupled to the receptor beads and biotinylated antibody specific to the N-terminus of Aβ (JRF/AβN/25) was used to react with the donor beads. To quantify the amount of Aβtotal in the cell supernatant, monoclonal antibody specific to the N-terminus of Aβ (JRF/AβN/25) was coupled to the receptor beads and biotinylated antibody specific to the mid region of Aβ (biotinylated 4G8) was used to react with the donor beads.
as §2, with “7c,” for “7b,”, “IC50.” for “IC50. The values reported in Table 7b are averaged IC50 values.”

Aβtotal = assay: Method 2: Aβtotal Alphalisa in supernatant of SKNBE2 cells carrying APP 695-wild type (Table 7c); details: Method 2, Alphalisa, overnight incubation
Protocol: as §1, with “Invitrogen” for “Gibco”, “10371-029)” for “31330-38)”, “acids, 1-glutamine 2 mM, Hepes 15 mM, penicillin 50 U/ml (units/ml) en streptomycin 50 μg/ml.” for “acids.”
as §3, §4
as §2, with “7c,” for “7b,”, “IC50.” for “IC50. The values reported in Table 7b are averaged IC50 values.”

SMILES | IC50 (Aβ42 [1]) | IC50 (Aβ42 [2]) | IC50 (Aβtotal) | IC50 (Aβ42 [2]; Homo sapiens) | IC50 (Aβtotal; Homo sapiens)
COc1nc(Nc2cccc3c2nc(-c2ccc(F)cc2)n3C)ccc1-c1cnn(C)c1 [Compound 68] | – | 18 nM | > 10000 nM | – | –
COc1nc(Nc2cccc3c2nc(-c2ccc(F)cc2)n3C(C)C)ccc1-c1cnn(C)c1 [Compound 69] | – | 22 nM | > 10000 nM | – | –
Cc1nc(C)c(-c2ccc(Nc3cccc4c3nc(-c3ccc(F)cc3)n4C(C)C)cc2)o1 [Compound 81] | – | 95 nM | > 10000 nM | – | –
Cc1ncoc1-c1ccc(Nc2cccc3c2nc(-c2ccc(Cl)s2)n3C(C)C)cn1 [Compound 116] | – | 72 nM | > 10000 nM | – | –
COc1cc(Nc2nc(C)cc3c2nc(-c2ccc(F)cc2)n3C)ccc1-c1ocnc1C [Compound 125] | 33 nM | 195 nM | > 10000 nM | – | –
COc1cc(Nc2cc(C(F)(F)F)cc3c2nc(CCC(F)(F)F)n3C)ccc1-c1ocnc1C [Compound 126] | 214 nM | 741 nM | – | – | –
Cc1cc(-c2ccc(Nc3cccc4c3nc(-c3ccc(F)cc3)n4C(C)C)cc2)ccn1 [Compound 131] | – | 28 nM | > 10000 nM | – | –
Cc1cc(-c2ccc(Nc3nc(C)cc4c3nc(-c3ccc(F)cc3)n4C)cc2)ccn1 [Compound 132] | – | 123 nM | 6310 nM | – | –
Cc1cc(-c2ccc(Nc3cccc4c3nc(-c3ccc(F)cc3)n4C)cc2)ccn1 [Compound 138] | – | 49 nM | 7080 nM | – | –
COc1cc(Nc2cccc3c2nc(-c2ccc(F)cc2)n3C)ccc1-c1ccnc(C)c1 [Compound 139] | – | 60 nM | 6610 nM | – | –
COc1cc(Nc2cc(C(C)=O)cn3cc(CC(C)C)nc23)ccc1-c1ocnc1C [Compound 156] | – | – | – | 42 nM | 8910 nM
COc1cc(Nc2nccn3cc(C)nc23)ccc1-c1ocnc1C [Compound 158] | – | 1860 nM | > 10000 nM | – | –
COCc1c(-c2ccc(F)cc2)nc2c(Nc3ccc(-c4cnc(C)o4)c(OC)c3)cccn12 [Compound 168] | – | 51 nM | > 10000 nM | – | –
Cc1ncc(-c2cnc(Nc3cccc4c3nc(-c3ccc(F)cc3)n4C)nc2)o1 [Compound 188] | – | – | – | > 10000 nM | > 10000 nM
COc1cc(Nc2cc(C#N)nc3c2nc(-c2ccc(F)cc2)n3C)ccc1-c1cnc(C)o1 [Compound 189] | – | 2400 nM | > 10000 nM | – | –
COc1nc(Nc2cccn3c(C)c(-c4ccccc4Cl)nc23)ccc1-c1ccnc(C)c1 [Compound 194] | – | 17 nM | ~6760 nM | – | –
Cc1ccc(F)cc1-c1cn2nc(Cl)cc(Nc3ccc(-c4ocnc4C)nc3)c2n1 [Compound 198] | – | 1180 nM | 6760 nM | – | –
COc1cc(Nc2cccn3c(C)c(-c4ccccc4Cl)nc23)ccc1-c1ccnc(C)c1 [Compound 201] | – | 45 nM | > 10000 nM | – | –

Continued, values first:

IC50 (Aβ42 [1]) | IC50 (Aβ42 [2]) | IC50 (Aβtotal) | IC50 (Aβ42 [2]; Homo sapiens) | IC50 (Aβtotal; Homo sapiens) | SMILES
> 3000 nM | > 10000 nM | > 10000 nM | – | – | Cc1ncc(-c2ccc(Nc3nccc4c3nc(CC3CC3)n4C)cc2F)o1 [Compound 66]
– | 141 nM | 5620 nM | – | – | COc1cc(Nc2cccc3c2nc(-c2ccc(F)cc2)n3C)ccc1-c1cnn(C)n1 [Compound 73]
– | 7410 nM | 4470 nM | – | – | COc1cc(Nc2cccc3c2nc(-c2ccc(F)cc2)n3C)ccc1-c1cn(C)nn1 [Compound 74]
– | 49 nM | > 10000 nM | – | – | COc1cc(Nc2cccc3c2nc(-c2ccc(F)cc2)n3C(C)C)ccc1-c1oc(C)nc1C [Compound 80]
– | 112 nM | > 10000 nM | – | – | COCc1ncc(-c2ccc(Nc3cccc4c3nc(-c3ccc(F)cc3)n4C(C)C)cc2)o1 [Compound 84]
1860 nM | 2750 nM | > 10000 nM | – | – | COc1cc(Nc2cccc3c2nc(C2CCOCC2)n3C(C)C)ccc1-c1cnc(C)o1 [Compound 93]
– | 66 nM | 4900 nM | – | – | COc1cc(Nc2nc(C)cc3c2nc(-c2ccccc2Cl)n3C)ccc1-c1ocnc1C [Compound 113]
– | 44 nM | 3630 nM | – | – | COc1cc(Nc2nc(C)cc3c2nc(-c2ccc(F)cc2)n3C)ccc1-c1ccnc(C)c1 [Compound 127]
– | – | – | 39 nM | 9120 nM | COc1cc(Nc2cccc3c2nc(-c2ccc(F)cc2)n3C(C)C)ccc1-c1ccnc(C)c1 [Compound 128]
– | 17 nM | 5250 nM | – | – | COc1nc(Nc2cccc3c2nc(-c2ccc(F)cc2)n3C)ccc1-c1ccnc(C)c1 [Compound 129]
– | 30 nM | > 10000 nM | – | – | COc1nc(Nc2cccc3c2nc(-c2ccc(F)cc2)n3C(C)C)ccc1-c1ccnc(C)c1 [Compound 130]
– | 191 nM | > 10000 nM | – | – | Cc1cc(-c2ccc(Nc3cccc4c3nc(-c3ccc(F)cc3)n4C)cc2F)ccn1 [Compound 133]
– | 347 nM | > 10000 nM | – | – | Cc1cc(-c2ccc(Nc3cccc4c3nc(-c3ccc(F)cc3)n4C)nn2)ccn1 [Compound 135]
– | 112 nM | > 10000 nM | – | – | Cc1cc(-c2ccc(Nc3nc(C)cc4c3nc(-c3ccc(F)cc3)n4C)cc2F)ccn1 [Compound 136]
– | 117 nM | > 10000 nM | – | – | Cc1cc(-c2ccc(Nc3cccc4c3nc(-c3ccc(F)cc3)n4C(C)C)cc2F)ccn1 [Compound 137]
– | 759 nM | > 10000 nM | – | – | Cc1cc(-c2ccc(Nc3cccc4c3nc(-c3ccc(F)cc3)n4C(C)C)cc2)cc(C)n1 [Compound 140]
166 nM | 1050 nM | 6310 nM | – | – | COc1cc(Nc2cc(C#N)cn3cc(C)nc23)ccc1-c1ocnc1C [Compound 145]
85 nM | 468 nM | – | – | – | COc1cc(Nc2cc(F)cn3cc(-c4ccc(F)cc4C)nc23)ccc1-c1ocnc1C [Compound 147]
– | 269 nM | > 10000 nM | – | – | COc1cc(Nc2cc(Cl)cn3cc(C4CCOCC4)nc23)ccc1-c1ocnc1C [Compound 159]
– | 162 nM | 7760 nM | – | – | Cc1cc(-c2ccc(Nc3cccn4c(C)c(-c5ccccc5Cl)nc34)cc2F)ccn1 [Compound 182]
– | 83 nM | 8710 nM | – | – | Cc1cc(-c2ccc(Nc3cccn4c(C)c(-c5ccccc5Cl)nc34)cc2)ccn1 [Compound 183]
– | 62 nM | > 10000 nM | – | – | Cc1ncc(-c2ccc(Nc3ccnc4c3nc(-c3ccc(F)cc3)n4C)cc2F)o1 [Compound 187]
– | 12 nM | > 10000 nM | – | – | Cc1ncc(-c2ccc(Nc3cc(C(C)C)nc4c3nc(-c3ccc(F)cc3)n4C)cn2)o1 [Compound 191]
– | – | – | 550 nM | > 10000 nM | Cc1ccc(F)cc1-c1cn2nccc(Nc3ccc(-c4ocnc4C)nc3)c2n1 [Compound 197]
